Measurements published in patent US20230081426A1, “COMPOUNDS AND METHODS FOR KRAS MODULATION AND INDICATIONS THEREFOR” (Plexxikon Inc., priority 2020, published 2023).

Assays:
[1] = molecular target: T1, G12D-mutant human KRAS (amino acid residues 1-188) (Homo sapiens, UniProt P01116, G12D); test: KRAS Binding Disruption Assay (AlphaScreen; biotinylated KRpep-2d analogue or RAF1-RBD), G12D; conditions: KRAS G12D; geometric mean; read-out: KRAS GMean IC50 (uM) MUTATION: G12D
T1 construct: G12D or G12C-mutant human KRAS (amino acid residues 1-188) with FLAG tag; made in house; host or cells: E. coli
Procedure, shortened: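 AlphaScreen readout: signal falls as compound displaces biotinylated KRpep-2d analogue or RAF1-RBD from mutant KRAS. Both partners at 5-20 nM, 1 h binding at 25° C, then 10 μg/mL Anti-Flag acceptor and streptavidin donor beads for 1 h. IC50 by nonlinear regression of % inhibition.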

[2] = molecular target: T2, G12V-mutant human KRAS (amino acid residues 1-188) (Homo sapiens, UniProt P01116, G12V); test: KRAS Binding Competition Assay (AlphaScreen; biotinylated KRpep-2d analogue), G12V; conditions: geometric mean, read-out: KRAS GMean IC50 (uM) MUTATION: G12V
T2 construct: G12V-mutant human KRAS (amino acid residues 1-188) with FLAG tag was purified from E. coli; made in house; host or cells: E. coli

| IC50 [1] [µM] | IC50 [2] [µM] | Structure (SMILES) |
| --- | --- | --- |
| 10 to 100 | 0.0001 to 10 | Cc1cccc2cccc(-c3ccc4c(N5C[C@H]6CC[C@@H](C5)N6C(=O)CC#N)nc(OCC56CCCN5CCC6)nc4c3F)c12 [P-0442, 3-((1R,5S)-3-(8-fluoro-7-(8-methylnaphthalen-1-yl)-2-((tetrahydro-1H-pyrrolizin-7a(5H)-yl)methoxy)quinazolin-4-yl)-3,8-diazabicyclo[3.2.1]octan-8-yl)-3-oxopropanenitrile] |
| 10 to 100 | 100 to 1000 | CN1CCC[C@H]1COc1nc(N2[C@@H]3CC[C@H]2CN(C(=O)Cc2cnn(C)c2)C3)c2ccc(-c3cc(O)cc4ccccc34)cc2n1 [P-0228, 1-((1R,5S)-8-(7-(3-hydroxynaphthalen-1-yl)-2-(((S)-1-methylpyrrolidin-2-yl)methoxy)quinazolin-4-yl)-3,8-diazabicyclo[3.2.1]octan-3-yl)-2-(1-methyl-1H-pyrazol-4-yl)ethan-1-one] |
| 0.0001 to 10 | 0.0001 to 10 | O=C(NC1CCNC1)N1[C@@H]2CC[C@H]1CN(c1nc(OCC34CCCN3CCC4)nc3cc(-c4cc(O)cc5ccccc45)ccc13)C2 (stereo partly drawn) [P-0097, (1R,5S)-3-(7-(3-hydroxynaphthalen-1-yl)-2-((tetrahydro-1H-pyrrolizin-7a(5H)-yl)methoxy)quinazolin-4-yl)-N-(pyrrolidin-3-yl)-3,8-diazabicyclo[3.2.1]octane-8-carboxamide] |
| 0.0001 to 10 | 10 to 100 | CN1CCC[C@H]1COc1nc(N2C[C@H]3CC[C@@H](C2)N3C(=N)N)c2ccc(-c3cc(O)cc4ccccc34)c(F)c2n1 [P-0468, (1R,5S)-3-(8-fluoro-7-(3-hydroxynaphthalen-1-yl)-2-(((S)-1-methylpyrrolidin-2-yl)methoxy)quinazolin-4-yl)-3,8-diazabicyclo[3.2.1]octane-8-carboximidamide] |
| 10 to 100 | 10 to 100 | CN1CCC[C@H]1COc1nc(N2[C@@H]3CC[C@H]2CNC3)c2ccc(-c3ccc4ccccc4c3)cc2n1 [P-0258, 4-((1R,5S)-3,8-diazabicyclo[3.2.1]octan-8-yl)-2-(((S)-1-methylpyrrolidin-2-yl)methoxy)-7-(naphthalen-2-yl)quinazoline] |
| 10 to 100 | 10 to 100 | CN1CCC[C@H]1COc1nc(N2C[C@H]3CC[C@@H](C2)N3)c2cc(F)c(-c3c[nH]c4cccc(Cl)c34)c(F)c2n1 [P-0309, 4-((1R,5S)-3,8-diazabicyclo[3.2.1]octan-3-yl)-7-(4-chloro-1H-indol-3-yl)-6,8-difluoro-2-(((S)-1-methylpyrrolidin-2-yl)methoxy)quinazoline] |
| 0.0001 to 10 | 10 to 100 | OCC1CN(c2nc(N3C[C@H]4CC[C@@H](C3)N4)c3ccc(-c4cc(O)cc5ccccc45)c(F)c3n2)CC1O (stereo partly drawn) [P-0629, 1-(4-((1R,5S)-3,8-diazabicyclo[3.2.1]octan-3-yl)-8-fluoro-7-(3-hydroxynaphthalen-1-yl)quinazolin-2-yl)-4-(hydroxymethyl)pyrrolidin-3-ol] |
| 0.0001 to 10 | 0.0001 to 10 | CN1CCC[C@H]1COc1nc(N2C[C@H]3CC[C@@H](C2)N3C(=O)Cn2ccnc2)c2ccc(-c3cc(O)cc4ccccc34)c(F)c2n1 [P-0401, 1-((1R,5S)-3-(8-fluoro-7-(3-hydroxynaphthalen-1-yl)-2-(((S)-1-methylpyrrolidin-2-yl)methoxy)quinazolin-4-yl)-3,8-diazabicyclo[3.2.1]octan-8-yl)-2-(1H-imidazol-1-yl)ethan-1-one] |
| 0.0001 to 10 | 10 to 100 | CN1CCC[C@H]1COc1nc(N2C[C@H]3CC[C@@H](C2)N3C(=O)C(O)CO)c2ccc(-c3cc(O)cc4ccccc34)c(F)c2n1 (stereo partly drawn) [P-0404, 1-((1R,5S)-3-(8-fluoro-7-(3-hydroxynaphthalen-1-yl)-2-(((S)-1-methylpyrrolidin-2-yl)methoxy)quinazolin-4-yl)-3,8-diazabicyclo[3.2.1]octan-8-yl)-2,3-dihydroxypropan-1-one] |
| 0.0001 to 10 | 0.0001 to 10 | CC(C(=O)N1[C@@H]2CC[C@H]1CN(c1nc(OCC34CCCN3CCC4)nc3c(F)c(-c4cc(O)cc5ccccc45)ccc13)C2)S(N)(=O)=O (stereo partly drawn) [P-0449, 1-((1R,5S)-3-(8-fluoro-7-(3-hydroxynaphthalen-1-yl)-2-((tetrahydro-1H-pyrrolizin-7a(5H)-yl)methoxy)quinazolin-4-yl)-3,8-diazabicyclo[3.2.1]octan-8-yl)-1-oxopropane-2-sulfonamide] |
| 0.0001 to 10 | 0.0001 to 10 | CN1CCC[C@H]1COc1nc(N2C[C@H]3CC[C@@H](C2)N3C(=O)C(=O)Nc2ccccn2)c2ccc(-c3cc(O)cc4ccccc34)c(F)c2n1 [P-0400, 2-((1R,5S)-3-(8-fluoro-7-(3-hydroxynaphthalen-1-yl)-2-(((S)-1-methylpyrrolidin-2-yl)methoxy)quinazolin-4-yl)-3,8-diazabicyclo[3.2.1]octan-8-yl)-2-oxo-N-(pyridin-2-yl)acetamide] |
| 0.0001 to 10 | 100 to 1000 | Fc1c(-c2c[nH]c3ccc(C(F)(F)F)cc23)ccc2c(N3C[C@H]4CC[C@@H](C3)N4)nc(OCC34CCCN3CCC4)nc12 [P-0610, 4-((1R,5S)-3,8-diazabicyclo[3.2.1]octan-3-yl)-8-fluoro-2-((tetrahydro-1H-pyrrolizin-7a(5H)-yl)methoxy)-7-(5-(trifluoromethyl)-1H-indol-3-yl)quinazoline] |
| 10 to 100 | 100 to 1000 | CN1CCC[C@H]1COc1nc(N2[C@@H]3CC[C@H]2CN(C(=O)CC(N)=O)C3)c2ccc(-c3cc(O)cc4ccccc34)cc2n1 [P-0227, 3-((1R,5S)-8-(7-(3-hydroxynaphthalen-1-yl)-2-(((S)-1-methylpyrrolidin-2-yl)methoxy)quinazolin-4-yl)-3,8-diazabicyclo[3.2.1]octan-3-yl)-3-oxopropanamide] |
| 10 to 100 | 0.0001 to 10 | CN1CCC[C@H]1COc1nc(N2C[C@H]3CC[C@@H](C2)N3C(=O)CCC#N)c2ccc(-c3cc(O)cc4ccccc34)cc2n1 [P-0383, 4-((1R,5S)-3-(7-(3-hydroxynaphthalen-1-yl)-2-(((S)-1-methylpyrrolidin-2-yl)methoxy)quinazolin-4-yl)-3,8-diazabicyclo[3.2.1]octan-8-yl)-4-oxobutanenitrile] |
| 0.0001 to 10 | 10 to 100 | CN1CCC[C@H]1COc1nc(N2C[C@H]3CC[C@@H](C2)N3)c2ccc(-c3cc(O)c(F)c4ccccc34)cc2n1 [P-0385, 4-(4-((1R,5S)-3,8-diazabicyclo[3.2.1]octan-3-yl)-2-(((S)-1-methylpyrrolidin-2-yl)methoxy)quinazolin-7-yl)-1-fluoronaphthalen-2-ol] |
| 10 to 100 | 10 to 100 | Cc1ccc(N)cc1-c1ccc2c(N3C[C@H]4CC[C@@H](C3)N4)nc(OC[C@@H]3CCCN3C)nc2c1 [P-0152, 3-(4-((1R,5S)-3,8-diazabicyclo[3.2.1]octan-3-yl)-2-(((S)-1-methylpyrrolidin-2-yl)methoxy)quinazolin-7-yl)-4-methylaniline] |
| 0.0001 to 10 | 0.0001 to 10 | O=C(OC1CCOC1)N1[C@@H]2CC[C@H]1CN(c1nc(OCC34CCCN3CCC4)nc3cc(-c4cc(O)cc5ccccc45)ccc13)C2 (stereo partly drawn) [P-0098, Tetrahydrofuran-3-yl (1R,5S)-3-(7-(3-hydroxynaphthalen-1-yl)-2-((tetrahydro-1H-pyrrolizin-7a(5H)-yl)methoxy)quinazolin-4-yl)-3,8-diazabicyclo[3.2.1]octane-8-carboxylate] |
| 10 to 100 | 10 to 100 | CN1CCC[C@H]1COc1nc(N2[C@@H]3CC[C@H]2CN(C(=O)NCC(N)=O)C3)c2ccc(-c3cc(O)cc4ccccc34)cc2n1 [P-0211, (1R,5S)-N-(2-amino-2-oxoethyl)-8-(7-(3-hydroxynaphthalen-1-yl)-2-(((S)-1-methylpyrrolidin-2-yl)methoxy)quinazolin-4-yl)-3,8-diazabicyclo[3.2.1]octane-3-carboxamide] |
| 10 to 100 | 10 to 100 | CN1CCC[C@H]1COc1nc(N2C[C@H]3CC[C@@H](C2)N3)c2ccc(-c3c(O)cccc3F)cc2n1 [P-0165, 2-(4-((1R,5S)-3,8-diazabicyclo[3.2.1]octan-3-yl)-2-(((S)-1-methylpyrrolidin-2-yl)methoxy)quinazolin-7-yl)-3-fluorophenol] |
| 10 to 100 | 10 to 100 | CN1CCC[C@H]1COc1nc(N2[C@@H]3CC[C@H]2CN(C(=O)Cn2ccnc2)C3)c2ccc(-c3cc(O)cc4ccccc34)cc2n1 [P-0207, 1-((1R,5S)-8-(7-(3-hydroxynaphthalen-1-yl)-2-(((S)-1-methylpyrrolidin-2-yl)methoxy)quinazolin-4-yl)-3,8-diazabicyclo[3.2.1]octan-3-yl)-2-(1H-imidazol-1-yl)ethan-1-one] |
| 10 to 100 | 10 to 100 | CN1CCC[C@H]1COc1nc(N2[C@@H]3CC[C@H]2CN(CC2(O)CCNCC2)C3)c2ccc(-c3cc(O)cc4ccccc34)cc2n1 [P-0348, 4-(((1R,5S)-8-(7-(3-hydroxynaphthalen-1-yl)-2-(((S)-1-methylpyrrolidin-2-yl)methoxy)quinazolin-4-yl)-3,8-diazabicyclo[3.2.1]octan-3-yl)methyl)piperidin-4-ol] |
| 0.0001 to 10 | 10 to 100 | CCN1CCC[C@H]1COc1nc(N2C[C@H]3CC[C@@H](C2)N3)c2ccc(-c3cc(O)cc4ccccc34)cc2n1 [P-0080, 4-(4-((1R,5S)-3,8-diazabicyclo[3.2.1]octan-3-yl)-2-(((S)-1-ethylpyrrolidin-2-yl)methoxy)quinazolin-7-yl)naphthalen-2-ol] |
